Among the data in ChEMBL document CHEMBL3217677, “Synthesis, biological evaluation and X-ray crystallographic studies of imidazo[1,2-a]pyridine-based Mycobacterium tuberculosis glutamine synthetase inhibitors” (Medchemcomm, 2012) are IC50 values, retold here.

Where only a bound is given, the exact number is not on record here.

As usually defined, the IC50 is the concentration that inhibits the measured activity by half.

A short description of this assay: Inhibition of Mycobacterium tuberculosis glutamine synthetase expressed in Escherichia coli GJ4745 after 1 hr by colorimetry.
As to `Cn1c(N2CCOCC2)nc2c1c(=O)n(Cc1ccc(Cl)c(Cl)c1)c(=O)n2C`, the IC50 worked out at 2.5 µM.
Consider `CC(C)Nc1c(-c2ccc(F)c(F)c2F)nc2ccc(Br)cn12`, for which the IC50 is above 25 µM.
For `Oc1ccc(-c2nc3ccc(Br)cn3c2NC2CCCCC2)c(Cl)c1` the value was above 25 µM; for `CS(=O)(=O)c1cc(Cl)ccc1-c1nc2ccc(Br)cn2c1NC1CCCC1`, above 25 µM; for `COc1ccc(Nc2c(-c3ccc(OCc4ccccc4)c(OCc4ccccc4)c3)nc3ccc(Br)cn23)cc1`, above 25 µM.
Next, `Fc1cc(-c2nc3ccc(Br)cn3c2NC2CCCC2)ccc1N1CCOCC1`: above 25 µM; `CCCCNc1c(-c2ccc(OCCO)cc2)nc2ccc(Br)cn12`: 3 µM.
Compound `CN(C)c1ccc(-c2nc3ccc(Br)cn3c2NC2CCCC2)cc1` showed an IC50 above 25 µM.
`COc1cccc(-c2nc3ccc(Br)cn3c2NCCN2CCOCC2)c1OC`: the IC50 is above 25 µM.
For `COc1cccc(-c2nc3ccc(Br)cn3c2NC2CCCC2)c1OCc1ccccc1` the value was above 25 µM.
For `CC(C)(C)Nc1c(-c2ccccc2O)nc2ccc(Br)cn12` the value was above 25 µM; for `Brc1ccc2nc(-c3ccccc3-c3ccccc3)c(NC3CCCC3)n2c1`, above 25 µM.
With `CC(C)Nc1c(-c2cccc(N3CCOCC3)c2)nc2ccc(Br)cn12`, the IC50 was above 25 µM.
For `Brc1ccc2nc(-c3ccccc3)c(NCCc3ccccc3)n2c1` the value was above 25 µM.
As to `CC(C)Nc1c(-c2ccc(OCCO)cc2)nc2ccc(Br)cn12`, the IC50 was above 25 µM.
Next, `OCCOc1ccc(-c2nc3ccc(Br)cn3c2Nc2ccc(F)cc2)cc1`: above 25 µM; `OCCOc1ccc(-c2nc3ccc(Br)cn3c2NC2CCCC2)cc1`: above 25 µM; `CCCNc1c(-c2ccc(OCCO)cc2)nc2ccc(Br)cn12`: 3.9 µM.
For `CCCCCNc1c(-c2ccc(OCCO)cc2)nc2ccc(Br)cn12` the value was 4.9 µM; for `CCCCNc1c(-c2ccc(N(C)CCO)cc2)nc2ccc(Br)cn12`, 8.3 µM; for `CCCCNc1c(-c2ccc(OCC(=O)O)cc2)nc2ccc(Br)cn12`, 1.6 µM.
Next, `CCCCNc1c(-c2ccc(N(CCO)CCO)cc2)nc2ccc(Br)cn12`: 22 µM; `CCCCNc1c(-c2ccc(OCCC)cc2)nc2ccc(Br)cn12`: 15 µM; `CCCCNc1c(-c2ccc(OCC(N)=O)cc2)nc2ccc(Br)cn12`: 6.3 µM.
Turning to `CCCCNc1c(-c2ccc(OCCN(C)C)cc2)nc2ccc(Br)cn12`, the midpoint of inhibition, the IC50, lay at 5.8 µM.
`CCCCNc1c(-c2ccc(OCC#N)cc2)nc2ccc(Br)cn12` gave an IC50 of 10 µM.
Next, `CCCCNc1c(-c2cccc(OCCO)c2)nc2ccc(Br)cn12`: 2.2 µM; `CCCCNc1c(-c2ccc(OC)c(O)c2)nc2ccc(Br)cn12`: 1.9 µM; `CCCCNc1c(-c2cccc(O)c2)nc2ccc(Br)cn12`: 1.4 µM.
Next, `CCCCNc1c(-c2cccc(C(=O)O)c2)nc2ccc(Br)cn12`: 0.6 µM; `CCCCNc1c(-c2ccc(O)c(OC)c2)nc2ccc(Br)cn12`: 1.5 µM.
